Activity calls are given as the source filed them.
Legend:
[1] = molecular target: Beta-galactosidase (Escherichia coli, UniProt Q8VNN2); experiment: Dose response counterscreen for EBI2 assay utilizing the enzyme, b-galactosidase.; assay type: functional
[2] = cells; assay type: functional, cell-based
[3] = cells; assay type: functional, cell-based; remark: listed apart in the source
[4] = microbe, parasite or virus in culture; assay type: functional; details: Mycobacterium tuberculosis
[5] = molecular target: Large T antigen (Simian virus 40, UniProt P03070); assay type: functional, Betapolyomavirus macacae;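 note: Confirmatory-stage PubChem screen for compounds that inhibit SV40 T antigen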
Large T antigen, sequence (P03070 whole entry): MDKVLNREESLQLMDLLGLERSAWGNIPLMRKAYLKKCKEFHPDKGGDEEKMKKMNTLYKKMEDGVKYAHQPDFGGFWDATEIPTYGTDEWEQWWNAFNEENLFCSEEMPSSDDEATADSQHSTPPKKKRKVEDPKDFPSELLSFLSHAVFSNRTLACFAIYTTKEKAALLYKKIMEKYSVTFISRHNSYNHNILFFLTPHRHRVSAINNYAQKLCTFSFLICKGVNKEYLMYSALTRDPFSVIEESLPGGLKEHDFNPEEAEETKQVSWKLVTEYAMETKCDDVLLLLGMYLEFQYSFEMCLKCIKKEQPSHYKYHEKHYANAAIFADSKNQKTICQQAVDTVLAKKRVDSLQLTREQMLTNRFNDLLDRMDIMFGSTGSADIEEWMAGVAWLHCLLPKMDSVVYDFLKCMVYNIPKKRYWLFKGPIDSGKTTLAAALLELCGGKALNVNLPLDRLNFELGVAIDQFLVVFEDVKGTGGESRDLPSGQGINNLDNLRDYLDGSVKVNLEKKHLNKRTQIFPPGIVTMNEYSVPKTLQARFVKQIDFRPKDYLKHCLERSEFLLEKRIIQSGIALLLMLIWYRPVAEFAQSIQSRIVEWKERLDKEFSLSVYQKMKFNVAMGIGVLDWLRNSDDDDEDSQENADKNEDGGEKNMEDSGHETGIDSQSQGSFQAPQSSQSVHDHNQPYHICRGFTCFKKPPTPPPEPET

[6] = NIH-3T3 fibroblast cytotoxicity, dose response, cytotoxicity control, cell-based, fluorescence, Alamar Blue, secondary assay (AID 2327); assay type: functional;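 note: NIH-3T3 mouse fibroblasts cultured with fluconazole at 8 µg/mL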
[7] = C. albicans growth with fluconazole, confirmation, fluorescence, retest (AID 2467); assay type: functional, cell-based
[8] = inhibitors of firefly luciferase expression or activity, dose response, H4 neuroglioma cells, luminescence (AID 1990); assay type: functional, cell-based
[9] = HepG2 cell cytotoxicity, dose response, cytotoxicity control for Shn3 inhibitor project, CellTiter-Glo, cherry-picked (AID 624134); assay type: functional, cell-based
[10] = control 3'UTR Renilla luciferase suppression, dose response, counter-screen for Shn3 inhibitor project, cell-based, Clone20-Shn3RL, cherry-picked (AID 624133); assay type: functional
[11] = Shn3 3'UTR reporter inhibitors, dose response, cell-based, Clone20 osteoblasts, firefly luciferase, cherry-picked (AID 624132); assay type: functional;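 note: firefly luciferase luminescence from reporter carrying the Shn3 3'UTR in osteoblasts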
[12] = molecular target: Nonstructural protein 1 (Influenza A virus, UniProt Q194T2); assay type: functional, Influenza A virus (A/California/07/2009(H1N1))
Nonstructural protein 1, sequence (Q194T2 whole entry): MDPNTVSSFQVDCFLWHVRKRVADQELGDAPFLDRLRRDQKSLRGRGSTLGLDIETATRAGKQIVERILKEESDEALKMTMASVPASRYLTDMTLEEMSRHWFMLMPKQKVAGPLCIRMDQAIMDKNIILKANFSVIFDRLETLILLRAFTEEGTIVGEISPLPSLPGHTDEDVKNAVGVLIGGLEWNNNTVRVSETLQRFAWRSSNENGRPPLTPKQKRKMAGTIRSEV

[13] = system: INS1; experiment: beta cell apoptosis inhibitors, cytokine rescue, dose response, luminescence, retest (AID 449756); assay type: functional, cell-based; details: Rattus norvegicus;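 note: cell death triggered by IL-1 beta plus TNF-alpha plus IFN-gamma mixture; protective hits raise ATP signal compared with cytokine alone wells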
[14] = inhibitors of SNCA 5'UTR-driven reporter translation, confirmation, H4 neuroglioma cells, luminescence (AID 1988); assay type: functional, cell-based
[15] = Luminescence Cell-Based Dose Response HTS to Identify Inhibitors of 5'UTR Stem-Loop Driven Prion Protein mRNA Translation in H4 Neuroglioblastoma Cells. [Related pubchem assays: 1827 (Project Summary), 1813 (Primary HTS)]; assay type: functional
[16] = molecular target: Heat shock protein HSP 90-alpha (Homo sapiens, UniProt P07900); assay type: functional, organism-based
[17] = Luminescence Cell-Based Dose Retest to Confirm Inhibitors of Cancer Stem Cells. [Related pubchem assays (depositor defined):AID2717, AID2721]; assay type: functional; details: Homo sapiens
[18] = molecular target: T1, Ubiquitin-conjugating enzyme E2 N (Homo sapiens, UniProt P61088); assay type: functional;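 note: Dose-response confirmation in a TR-FRET assay detecting UBC13-driven polyubiquitin chain formation, inhibition measured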
T1 sequence (P61088 whole entry): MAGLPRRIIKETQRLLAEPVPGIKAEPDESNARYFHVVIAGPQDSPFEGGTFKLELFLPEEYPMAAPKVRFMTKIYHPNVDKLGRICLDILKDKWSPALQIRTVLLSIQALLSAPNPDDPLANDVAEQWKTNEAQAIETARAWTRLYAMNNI

[19] = ZM109 Env clade C HIV-1 fusion inhibitors, dose response, HeLa effector, CEM target cells, luciferase, cherry-pick (AID 652058); assay type: functional, cell-based
[20] = inhibitors of clade B AD8 Env fusion, dose response, cell-based, cherry-pick (AID 652062); assay type: functional;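 note: luciferase signal from cell-cell fusion driven by HIV-1 clade B AD8 Env; potency is for inhibitors of fusion seen as a drop in luminescence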
[21] = inhibitors of HIV Env-driven cell fusion, dose response, cherry-pick (AID 652057); assay type: functional, cell-based
[22] = system: H9c2; experiment: cells; assay type: functional, cell-based; details: Rattus norvegicus, H9c2, Myocardium;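 note: confirmatory concentration-response retest of ultra-high-throughput screening hits for modulation of myocardial damage; cell death induced by hydrogen peroxide oxidative stress; compound pretreatment for 60 min then peroxide exposure for 2 h; potency is for protecting the cells against peroxide damage rather than for killing them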
[23] = molecular target: Paired box protein Pax-8 (Homo sapiens, UniProt Q06710); experiment: inhibitors of PAX8-driven TPO luciferase reporter, dose response, RMG-I cells, cherry-pick (AID 687027); assay type: functional, cell-based;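 note: luciferase reporter driven by Pax8 target thyroperoxidase promoter measured by SteadyGlo luminescence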
Paired box protein Pax-8, sequence (Q06710 whole entry): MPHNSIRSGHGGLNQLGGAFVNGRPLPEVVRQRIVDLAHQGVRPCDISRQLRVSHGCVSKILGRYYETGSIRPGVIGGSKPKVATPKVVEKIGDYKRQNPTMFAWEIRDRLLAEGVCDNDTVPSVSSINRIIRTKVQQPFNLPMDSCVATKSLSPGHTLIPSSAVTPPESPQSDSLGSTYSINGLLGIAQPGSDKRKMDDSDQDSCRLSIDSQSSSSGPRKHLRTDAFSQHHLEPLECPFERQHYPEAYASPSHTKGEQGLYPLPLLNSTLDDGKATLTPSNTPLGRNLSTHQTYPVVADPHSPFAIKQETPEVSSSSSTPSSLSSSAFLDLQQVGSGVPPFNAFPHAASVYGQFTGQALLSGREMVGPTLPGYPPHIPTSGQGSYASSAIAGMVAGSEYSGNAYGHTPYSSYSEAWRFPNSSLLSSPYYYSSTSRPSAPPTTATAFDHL

[24] = cytotoxicity toward NIH3T3 fibroblasts, dose response, counter-screen, cell-based, ATP luminescence, mouse fibroblasts (AID 2010); assay type: functional;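 note: cells exposed to compound for about 90 hours before reading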
[25] = inhibitors of intracellular T. cruzi replication, confirmation, NIH3T3 host cells, beta-gal luminescence (AID 2044); assay type: functional, cell-based;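 note: intracellular parasites grown in NIH/3T3 mouse fibroblasts as host cells; luminescent beta-galactosidase reporter signal from transgenic T. cruzi replicating inside host cells; inhibitors lower the luminescence signal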
[26] = molecular target: T2, Replicative DNA helicase DnaB (Mycobacterium tuberculosis, UniProt P9WMR3); experiment: DnaB intein splicing inhibitors, dose response, biochemical, cell-free fluorescence (AID 449749); assay type: functional
T2 sequence (P9WMR3 whole entry): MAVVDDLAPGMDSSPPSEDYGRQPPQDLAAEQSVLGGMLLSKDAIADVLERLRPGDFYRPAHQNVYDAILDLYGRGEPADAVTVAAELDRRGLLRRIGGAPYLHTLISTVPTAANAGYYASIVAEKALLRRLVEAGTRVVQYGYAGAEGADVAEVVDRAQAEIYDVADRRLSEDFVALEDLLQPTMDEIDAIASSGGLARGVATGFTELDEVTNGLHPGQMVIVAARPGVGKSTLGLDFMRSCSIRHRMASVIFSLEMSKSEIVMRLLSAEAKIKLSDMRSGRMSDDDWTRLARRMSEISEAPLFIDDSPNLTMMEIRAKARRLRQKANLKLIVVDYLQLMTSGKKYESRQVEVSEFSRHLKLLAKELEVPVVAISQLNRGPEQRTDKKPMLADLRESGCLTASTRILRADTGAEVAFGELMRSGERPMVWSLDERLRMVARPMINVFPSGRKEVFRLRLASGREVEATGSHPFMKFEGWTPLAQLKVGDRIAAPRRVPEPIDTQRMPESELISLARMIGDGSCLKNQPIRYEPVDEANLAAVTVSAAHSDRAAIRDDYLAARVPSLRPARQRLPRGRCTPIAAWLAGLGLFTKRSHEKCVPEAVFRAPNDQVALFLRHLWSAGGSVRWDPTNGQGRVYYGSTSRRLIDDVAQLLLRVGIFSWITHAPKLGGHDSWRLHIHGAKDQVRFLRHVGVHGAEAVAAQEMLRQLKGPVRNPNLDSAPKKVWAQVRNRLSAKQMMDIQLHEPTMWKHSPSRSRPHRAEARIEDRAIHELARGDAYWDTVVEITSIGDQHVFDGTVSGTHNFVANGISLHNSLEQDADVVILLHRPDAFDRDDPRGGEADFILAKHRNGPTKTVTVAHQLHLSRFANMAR

[27] = molecular target: T3, Protein RecA (Mycobacterium tuberculosis, UniProt P9WHJ3); experiment: Fluorescence Cell-Free Homogeneous Dose Retest to Identify Inhibitors of RecA-Intein Splicing Activity. [Related pubchem assays (depositor defined):AID2097, AID2223, AID489010, AID492950]; assay type: functional
T3 sequence (P9WHJ3 whole entry): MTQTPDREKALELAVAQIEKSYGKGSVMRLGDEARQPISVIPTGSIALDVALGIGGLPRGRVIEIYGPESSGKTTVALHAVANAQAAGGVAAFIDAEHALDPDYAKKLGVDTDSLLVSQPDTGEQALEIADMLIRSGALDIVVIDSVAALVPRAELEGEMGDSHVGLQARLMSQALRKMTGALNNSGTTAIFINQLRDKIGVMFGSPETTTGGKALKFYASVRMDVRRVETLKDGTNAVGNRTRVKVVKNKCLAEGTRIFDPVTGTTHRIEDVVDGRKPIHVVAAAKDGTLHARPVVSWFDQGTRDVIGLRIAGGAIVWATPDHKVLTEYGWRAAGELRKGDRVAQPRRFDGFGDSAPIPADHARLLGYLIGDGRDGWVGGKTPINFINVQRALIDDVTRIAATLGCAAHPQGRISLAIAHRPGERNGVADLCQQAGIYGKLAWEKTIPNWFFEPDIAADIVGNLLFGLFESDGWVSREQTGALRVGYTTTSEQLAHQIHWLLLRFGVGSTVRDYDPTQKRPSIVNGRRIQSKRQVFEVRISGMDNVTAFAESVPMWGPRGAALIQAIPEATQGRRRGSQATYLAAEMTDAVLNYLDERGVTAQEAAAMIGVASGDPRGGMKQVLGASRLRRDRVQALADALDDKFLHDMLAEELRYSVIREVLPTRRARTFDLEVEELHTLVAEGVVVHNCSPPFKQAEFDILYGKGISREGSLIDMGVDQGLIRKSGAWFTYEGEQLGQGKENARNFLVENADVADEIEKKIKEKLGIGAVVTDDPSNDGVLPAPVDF

Beta-galactosidase, sequence (Q8VNN2 whole entry): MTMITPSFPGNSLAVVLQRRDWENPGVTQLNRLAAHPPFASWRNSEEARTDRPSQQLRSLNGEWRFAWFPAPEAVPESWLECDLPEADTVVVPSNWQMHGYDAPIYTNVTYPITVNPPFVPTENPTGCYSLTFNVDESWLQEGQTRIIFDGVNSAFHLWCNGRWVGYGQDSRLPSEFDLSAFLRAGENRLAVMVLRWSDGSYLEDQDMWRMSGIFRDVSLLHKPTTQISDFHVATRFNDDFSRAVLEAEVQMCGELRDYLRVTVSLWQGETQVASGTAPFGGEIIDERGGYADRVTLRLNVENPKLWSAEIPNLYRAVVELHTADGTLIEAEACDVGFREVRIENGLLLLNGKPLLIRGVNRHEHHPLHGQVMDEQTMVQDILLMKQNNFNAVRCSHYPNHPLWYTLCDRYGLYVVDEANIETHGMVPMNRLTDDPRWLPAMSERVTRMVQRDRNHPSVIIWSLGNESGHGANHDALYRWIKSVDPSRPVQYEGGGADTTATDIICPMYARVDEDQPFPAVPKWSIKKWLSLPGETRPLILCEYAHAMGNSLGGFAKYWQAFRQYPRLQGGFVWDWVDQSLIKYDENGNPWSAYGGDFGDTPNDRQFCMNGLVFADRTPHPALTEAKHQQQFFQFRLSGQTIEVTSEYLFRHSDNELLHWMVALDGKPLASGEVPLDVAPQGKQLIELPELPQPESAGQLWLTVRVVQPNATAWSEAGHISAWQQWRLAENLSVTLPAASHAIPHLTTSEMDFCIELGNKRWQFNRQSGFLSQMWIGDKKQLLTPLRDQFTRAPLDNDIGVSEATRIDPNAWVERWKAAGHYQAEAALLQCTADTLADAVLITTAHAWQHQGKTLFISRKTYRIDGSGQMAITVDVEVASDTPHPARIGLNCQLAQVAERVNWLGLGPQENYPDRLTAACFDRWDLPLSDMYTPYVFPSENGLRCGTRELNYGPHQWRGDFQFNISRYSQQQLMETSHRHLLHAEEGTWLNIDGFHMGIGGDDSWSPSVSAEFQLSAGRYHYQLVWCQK

O=C(/C=C/c1ccccc1)N1CCN(c2c(Cl)cccc2[N+](=O)[O-])CC1
IC50 [1]: > 80 µM (inactive)

O=C(COc1ccc(Cl)cc1)N1CCN(C(=O)c2cccc(F)c2)CC1
IC50 [1]: > 80 µM (inactive)

CCCn1cc(NC(=O)c2cc(-c3ccccc3)on2)cn1
EC50 [2]: 2.49 µM (active)
EC50 [3]: 143 µM (active)

COc1cccc(-c2cc(C(F)(F)F)n3nc(C(=O)N4CCC5(CC4)OCCO5)cc3n2)c1
EC50 [2]: > 350 µM (not active)
EC50 [3]: > 350 µM (not active)

Cc1cc2c(N=O)c(NO)ccc2[nH]1
CC50 [4]: 5.53 µM (active)
IC50 [5]: 29.3 µM (active)

COc1ccc(NC(=O)Nc2ccc(CC(=O)O)cc2)cc1
EC50 [2]: 139 µM (active)
EC50 [3]: > 350 µM (not active)

Cc1ccc2oc(=O)c3cnn(CC(=O)N(CCC(C)C)Cc4ccco4)c3c2c1
IC50 [1]: > 80 µM (inactive)

COC(=O)CC1C(=O)NCCN1C(=O)CSc1nnc(Nc2ccc(OC)cc2)s1 (stereo not drawn)
EC50 [2]: > 350 µM (not active)
EC50 [3]: > 350 µM (not active)

CCOc1ccc(C(=O)NCC2CCCO2)cc1OCC (stereo not drawn)
EC50 [2]: > 350 µM (not active)
EC50 [3]: > 350 µM (not active)

O=S(=O)(Cc1ccc(Cl)cc1)N1CCN(Cc2ccccc2)CC1
EC50 [6]: > 160 µM (inactive)
EC50 [7]: > 38 µM (not active)

COc1ccccc1N1CCN(C(=O)c2cc3c(C)nc4ccccc4c3o2)CC1
IC50 [1]: > 80 µM (inactive)

OCc1ccc(O)c2ncccc12
EC50 [6]: > 150 µM (inactive)
EC50 [8]: 0.712 µM (active)
AC50 [9]: 5.94 µM (active)
EC50 [7]: > 38 µM (not active)
AC50 [10]: 2.24 µM (active)
AC50 [11]: 1.66 µM (active)
IC50 [12]: 10.5 µM (active)
AC50 [13]: 3.37 µM (active)
EC50 [14]: 1.2 µM (active)
EC50 [15]: 2.95 µM (active)

CCN(CC)C1CC(=O)N(c2cccc(Cl)c2)C1=O (stereo not drawn)
AC50 [16]: 2.21 µM (active)

S=C(NN=C1CCN(Cc2ccccc2)CC1)NC1CCCCC1
EC50 [8]: > 120 µM (not active)
CC50 [4]: > 40 µM (active)
EC50 [14]: > 120 µM (not active)
EC50 [15]: > 120 µM (not active)

O=C(COc1ccc(Br)cc1)N1CCN(S(=O)(=O)/C=C/c2ccccc2)CC1
IC50 [1]: > 80 µM (inactive)

Cc1ccc(S(=O)(=O)N(C(=O)c2ccncc2)c2ccc(OC(=O)c3ccncc3)cc2)cc1
AC50 [16]: 1.23 µM (active)

Cc1cccc(N2CCN(C(=O)c3cc4c(=O)[nH]c5ccccc5c4n3C)CC2)c1C
IC50 [1]: > 80 µM (inactive)

COc1ccc(NC(=O)c2c(N)no[n+]2[O-])cc1
EC50 [6]: 1.6 µM (active)
EC50 [7]: 2.19 µM (active)
AC50 [17]: 0.754 µM (active)

COc1ccc2c(n1)Sc1nc3ccccc3nc1N2
AC50 [16]: 1.96 µM (active)

CC(C)c1nc(CNC(=O)CCc2nnc(-c3ccsc3)o2)cs1
EC50 [2]: > 350 µM (not active)
EC50 [3]: > 350 µM (not active)

COc1ccc(-c2cc(C3CCN(c4cc(Cl)nc(N)n4)CC3)[nH]n2)cc1
IC50 [18]: > 20 µM (inactive)
AC50 [19]: 0.295 µM (active)
AC50 [20]: 26.4 µM (active)
AC50 [21]: 42.9 µM (active)

Cc1cc(C)cc(NC(=O)CSc2ccc(-c3ccccn3)nn2)c1
EC50 [8]: 11.7 µM (active)
IC50 [22]: > 79 µM (inactive)
EC50 [2]: > 350 µM (not active)
EC50 [3]: > 350 µM (not active)
AC50 [17]: 4.57 µM (active)
EC50 [14]: 8.69 µM (active)
EC50 [15]: 9.74 µM (active)

Cc1ccc(C)c(-c2cc(C(=O)Nc3cccc(C(=O)O)c3)c3ccccc3n2)c1
EC50 [2]: > 350 µM (not active)
EC50 [3]: > 350 µM (not active)

CCOC(=O)C1CCN(C(=O)/C=C/c2ccc(OC)cc2)CC1
IC50 [1]: > 80 µM (inactive)

N#C/C(=C/c1ccc(O)cc1)C(=O)NCc1ccc(Cl)cc1
AC50 [16]: 3.08 µM (active)

NC(=O)C1CCN(C2CC(=O)N(c3ccc(F)c(Cl)c3)C2=O)CC1 (stereo not drawn)
AC50 [16]: 3.04 µM (active)

CNC(=S)N1N=C(c2ccc(OC)cc2)CC1c1ccc(N(C)C)cc1 (stereo not drawn)
IC50 [1]: > 80 µM (inactive)

COCCNC(=O)CCCn1c(=O)c2cc(OC)c(OC)cc2n(CC(=O)NCCC2=CCCCC2)c1=O
EC50 [6]: > 160 µM (inactive)
EC50 [7]: 3.16 µM (active)

CC(=NNC(=S)N1CCC1)c1ccccn1
AC50 [23]: < 0.26 µM (active)
AC50 [16]: 1.58 µM (active)
IC50 [12]: 2.09 µM (active)

CC(C)=CCc1c(O)ccc(C2COc3c(CC=C(C)C)c(O)cc(O)c3C2=O)c1O (stereo not drawn)
AC50 [16]: 15.9 µM (active)

O=C1CCN(Cc2ccccc2)C=C1c1ccc(Br)cc1
IC50 [1]: > 80 µM (inactive)

O=c1c2c3c(sc2ncn1/N=C/c1ccc([N+](=O)[O-])o1)CCCC3
AC50 [16]: 0.637 µM (active)
AC50 [17]: 4.45 µM (active)

Cc1nc2ccccc2nc1N/N=C/c1ccc(O)cc1O
EC50 [24]: 8.31 µM (active)
EC50 [25]: 2.05 µM (active)
EC50 [2]: > 350 µM (not active)
EC50 [3]: 12.1 µM (active)
IC50 [12]: 14.1 µM (active)
AC50 [13]: 0.882 µM (active)
AC50 [26]: > 380 µM (inactive)
EC50 [27]: > 380 µM (inconclusive)

COc1ccc(OC)c(NC(=O)C(=O)/C=C(\O)c2cc(OC)ccc2OC)c1
EC50 [6]: 29.9 µM (inconclusive)
EC50 [7]: > 38 µM (not active)

From ChEMBL document CHEMBL1201862, “PubChem BioAssay data set” (2004)
